Assays:
Assay type in all cases: biochemical
PI3Kβ = molecular target: T1, PI3Kβ (Homo sapiens, UniProt P42338); assay: TR-FRET enzymatic activity assay, PI3Kβ; details: Table 2a; same assay
T1 construct: made in house

PI3Kγ = molecular target: T2, PI3Kγ (Homo sapiens, UniProt P48736); assay: TR-FRET enzymatic activity assay, PI3Kγ; details: Table 2a; same assay; read-out: PI3Kγ IC50
T2 construct: made in house
Summary of the method: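 Enzymatic activity against the PI3K isoforms was measured using a time-resolved fluorescence resonance energy transfer (TR-FRET) assay.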

PI3Kδ = molecular target: T3, PI3Kδ (Homo sapiens, UniProt O00329); assay: TR-FRET enzymatic activity assay, PI3Kδ; details: Table 2a; same assay
T3 construct: made in house
T3 sequence (O00329 whole entry): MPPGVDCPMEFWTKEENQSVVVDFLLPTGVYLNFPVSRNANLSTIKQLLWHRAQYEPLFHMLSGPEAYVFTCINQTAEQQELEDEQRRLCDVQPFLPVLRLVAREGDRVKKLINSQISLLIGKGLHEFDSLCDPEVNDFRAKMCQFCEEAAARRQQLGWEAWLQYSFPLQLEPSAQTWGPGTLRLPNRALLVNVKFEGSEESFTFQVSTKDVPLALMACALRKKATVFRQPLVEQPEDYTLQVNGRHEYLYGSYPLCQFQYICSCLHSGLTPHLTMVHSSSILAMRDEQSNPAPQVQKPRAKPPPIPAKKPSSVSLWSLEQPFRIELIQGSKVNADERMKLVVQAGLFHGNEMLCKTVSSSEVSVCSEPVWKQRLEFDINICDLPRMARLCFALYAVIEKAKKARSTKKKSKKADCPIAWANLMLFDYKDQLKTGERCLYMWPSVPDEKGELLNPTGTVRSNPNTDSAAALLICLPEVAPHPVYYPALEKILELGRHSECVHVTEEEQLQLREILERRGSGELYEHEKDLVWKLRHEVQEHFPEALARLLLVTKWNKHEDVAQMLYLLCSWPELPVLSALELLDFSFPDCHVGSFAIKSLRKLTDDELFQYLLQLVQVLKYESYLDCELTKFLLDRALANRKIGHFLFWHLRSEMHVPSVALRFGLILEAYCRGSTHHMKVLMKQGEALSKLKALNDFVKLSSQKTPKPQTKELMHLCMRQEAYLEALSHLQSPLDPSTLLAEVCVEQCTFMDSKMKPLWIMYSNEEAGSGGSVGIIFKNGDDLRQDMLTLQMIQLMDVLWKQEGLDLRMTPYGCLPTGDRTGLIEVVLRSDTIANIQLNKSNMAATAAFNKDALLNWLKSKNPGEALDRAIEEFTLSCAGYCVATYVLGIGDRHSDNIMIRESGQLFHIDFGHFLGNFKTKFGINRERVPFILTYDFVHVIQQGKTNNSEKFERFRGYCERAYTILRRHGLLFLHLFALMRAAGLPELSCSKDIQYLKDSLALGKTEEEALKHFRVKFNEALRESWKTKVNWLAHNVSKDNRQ
T3 sequence (P27986 whole entry partner): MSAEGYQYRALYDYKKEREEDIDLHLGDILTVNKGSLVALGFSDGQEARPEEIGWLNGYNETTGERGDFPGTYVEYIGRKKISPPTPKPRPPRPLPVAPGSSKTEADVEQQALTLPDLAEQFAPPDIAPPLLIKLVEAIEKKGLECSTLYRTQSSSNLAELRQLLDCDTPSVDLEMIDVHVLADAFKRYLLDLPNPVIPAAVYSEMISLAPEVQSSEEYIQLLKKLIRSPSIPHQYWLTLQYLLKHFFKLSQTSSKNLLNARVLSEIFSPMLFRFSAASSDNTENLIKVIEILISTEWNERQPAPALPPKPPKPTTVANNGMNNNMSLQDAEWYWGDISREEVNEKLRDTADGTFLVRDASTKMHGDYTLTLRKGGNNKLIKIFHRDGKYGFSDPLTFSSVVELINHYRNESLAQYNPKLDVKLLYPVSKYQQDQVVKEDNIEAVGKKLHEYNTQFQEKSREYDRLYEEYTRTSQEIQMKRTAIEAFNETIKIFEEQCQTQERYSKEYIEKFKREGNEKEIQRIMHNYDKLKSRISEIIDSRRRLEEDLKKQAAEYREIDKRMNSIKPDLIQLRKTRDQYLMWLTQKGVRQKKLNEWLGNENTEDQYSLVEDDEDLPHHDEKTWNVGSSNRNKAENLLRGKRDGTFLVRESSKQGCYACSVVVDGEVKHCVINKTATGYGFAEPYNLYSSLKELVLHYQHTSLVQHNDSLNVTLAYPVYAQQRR

T2 sequence (P48736 whole entry): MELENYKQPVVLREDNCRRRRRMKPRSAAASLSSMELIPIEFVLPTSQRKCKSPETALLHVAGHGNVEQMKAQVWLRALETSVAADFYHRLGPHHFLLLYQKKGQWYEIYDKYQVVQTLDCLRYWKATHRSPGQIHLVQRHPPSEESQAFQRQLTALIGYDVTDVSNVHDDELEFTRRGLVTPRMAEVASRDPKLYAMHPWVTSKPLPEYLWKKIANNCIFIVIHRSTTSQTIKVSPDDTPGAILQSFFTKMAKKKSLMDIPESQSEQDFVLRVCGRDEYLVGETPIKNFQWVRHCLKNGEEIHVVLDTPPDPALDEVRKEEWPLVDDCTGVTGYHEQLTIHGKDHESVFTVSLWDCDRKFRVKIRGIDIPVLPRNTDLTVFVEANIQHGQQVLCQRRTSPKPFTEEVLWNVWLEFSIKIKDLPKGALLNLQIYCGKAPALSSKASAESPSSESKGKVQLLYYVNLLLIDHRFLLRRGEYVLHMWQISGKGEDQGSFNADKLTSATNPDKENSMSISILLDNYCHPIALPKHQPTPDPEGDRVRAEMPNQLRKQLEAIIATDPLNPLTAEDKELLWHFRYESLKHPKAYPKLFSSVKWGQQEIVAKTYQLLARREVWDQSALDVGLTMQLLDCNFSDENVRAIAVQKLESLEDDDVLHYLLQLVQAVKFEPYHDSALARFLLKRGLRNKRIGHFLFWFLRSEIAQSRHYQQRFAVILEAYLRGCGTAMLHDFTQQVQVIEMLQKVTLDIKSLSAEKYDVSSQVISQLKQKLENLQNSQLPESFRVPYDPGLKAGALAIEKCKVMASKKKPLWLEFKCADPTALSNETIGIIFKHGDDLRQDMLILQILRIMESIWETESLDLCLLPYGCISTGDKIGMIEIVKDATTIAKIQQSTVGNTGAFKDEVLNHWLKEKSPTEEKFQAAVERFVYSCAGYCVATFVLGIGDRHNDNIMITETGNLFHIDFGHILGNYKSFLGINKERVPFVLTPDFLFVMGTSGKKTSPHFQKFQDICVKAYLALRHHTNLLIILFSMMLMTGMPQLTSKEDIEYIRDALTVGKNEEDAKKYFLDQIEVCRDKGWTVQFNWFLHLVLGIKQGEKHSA
T1 sequence (P42338 whole entry): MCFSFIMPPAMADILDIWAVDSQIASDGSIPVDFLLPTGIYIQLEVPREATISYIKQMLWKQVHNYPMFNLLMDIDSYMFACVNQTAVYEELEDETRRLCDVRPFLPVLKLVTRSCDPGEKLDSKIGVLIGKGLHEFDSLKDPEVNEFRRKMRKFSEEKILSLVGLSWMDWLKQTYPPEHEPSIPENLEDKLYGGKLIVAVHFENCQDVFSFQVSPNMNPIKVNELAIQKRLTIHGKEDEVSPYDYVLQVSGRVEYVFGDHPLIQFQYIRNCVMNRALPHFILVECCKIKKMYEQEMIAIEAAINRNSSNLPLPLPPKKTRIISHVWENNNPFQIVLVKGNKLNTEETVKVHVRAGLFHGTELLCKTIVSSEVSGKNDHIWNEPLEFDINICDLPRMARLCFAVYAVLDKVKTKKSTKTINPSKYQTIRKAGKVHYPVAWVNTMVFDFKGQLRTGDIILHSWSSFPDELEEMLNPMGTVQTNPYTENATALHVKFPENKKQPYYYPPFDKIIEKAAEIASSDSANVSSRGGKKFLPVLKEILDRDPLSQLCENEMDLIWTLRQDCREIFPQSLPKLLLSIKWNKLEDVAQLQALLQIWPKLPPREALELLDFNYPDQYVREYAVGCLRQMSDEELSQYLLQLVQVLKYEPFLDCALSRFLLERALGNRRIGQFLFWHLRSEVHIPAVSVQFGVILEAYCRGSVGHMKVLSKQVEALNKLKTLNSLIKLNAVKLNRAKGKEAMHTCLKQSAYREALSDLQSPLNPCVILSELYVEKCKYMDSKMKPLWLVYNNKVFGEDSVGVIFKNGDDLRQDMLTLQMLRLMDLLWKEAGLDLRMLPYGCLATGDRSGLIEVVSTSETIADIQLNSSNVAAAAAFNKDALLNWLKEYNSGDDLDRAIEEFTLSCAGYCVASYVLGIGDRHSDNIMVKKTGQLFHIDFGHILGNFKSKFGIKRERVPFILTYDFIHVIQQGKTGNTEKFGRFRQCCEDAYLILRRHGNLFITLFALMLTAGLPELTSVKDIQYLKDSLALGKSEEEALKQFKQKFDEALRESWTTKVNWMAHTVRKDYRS
T1 sequence (P27986 whole entry partner): as the sequence (P27986 whole entry partner) above

Row | SMILES | IC50 (PI3Kβ) [nM] | IC50 (PI3Kγ) [nM] | IC50 (PI3Kδ) [nM]
1 | C[C@H](Nc1nc(N)nc(N)c1Cl)c1nc2ccc(Cl)c(C(F)F)c2c(=O)n1-c1cc[nH]n1 [Compound 229, (S)-6-chloro-2-(1-((2,6-diamino-5-chloropyrimidin-4-yl)amino)ethyl)-5-(difluoromethyl)-3-(1H-pyrazol-3-yl)quinazolin-4(3H)-one] | 85 | 5000 | 49
2 | C[C@H](Nc1nc(N)nc(N)c1C#N)c1nc2ccc(Cl)c(C(F)F)c2c(=O)n1-c1cc[nH]n1 [Compound 230, (S)-2,4-diamino-6-((1-(6-chloro-5-(difluoromethyl)-4-oxo-3-(1H-pyrazol-3-yl)-3,4-dihydroquinazolin-2-yl)ethyl)amino)pyrimidine-5-carbonitrile] | 7 | 1800 | 6
3 | C[C@H](Nc1nc(N)nc(N)c1C#N)c1nc2c(F)c(F)ccc2c(=O)n1-c1cc[nH]n1 [Compound 231, (S)-2,4-diamino-6-((1-(7,8-difluoro-4-oxo-3-(1H-pyrazol-3-yl)-3,4-dihydroquinazolin-2-yl)ethyl)amino)pyrimidine-5-carbonitrile] | 13 | 6100 | 12
4 | C[C@H](Nc1nc(N)nc(N)c1Cl)c1nc2c(F)c(F)ccc2c(=O)n1-c1cc[nH]n1 [Compound 232, (S)-2-(1-((2,6-diamino-5-chloropyrimidin-4-yl)amino)ethyl)-7,8-difluoro-3-(1H-pyrazol-3-yl)quinazolin-4(3H)-one] | 260 | > 10000 | 190
5 | C[C@H](Nc1nc(N)nc(N)c1C#N)c1nc2cc(F)cc(F)c2c(=O)n1-c1cc[nH]n1 [Compound 235, (S)-2,4-diamino-6-((1-(5,7-difluoro-4-oxo-3-(1H-pyrazol-3-yl)-3,4-dihydroquinazolin-2-yl)ethyl)amino)pyrimidine-5-carbonitrile] | 11 | 9600 | 12
6 | C[C@H](Nc1nc(N)nc(N)c1Cl)c1nc2cc(F)cc(F)c2c(=O)n1-c1cc[nH]n1 [Compound 236, (S)-2-(1-((2,6-diamino-5-chloropyrimidin-4-yl)amino)ethyl)-5,7-difluoro-3-(1H-pyrazol-3-yl)quinazolin-4(3H)-one] | 120 | > 10000 | 120
7 | C[C@H](Nc1nc(N)nc(N)c1C#N)c1nc2cc(F)cc(Cl)c2c(=O)n1-c1cc[nH]n1 [Compound 237, (S)-2,4-diamino-6-((1-(5-chloro-7-fluoro-4-oxo-3-(1H-pyrazol-3-yl)-3,4-dihydroquinazolin-2-yl)ethyl)amino)pyrimidine-5-carbonitrile] | 2 | 1400 | 2
8 | C[C@H](Nc1nc(N)nc(N)c1Cl)c1nc2cc(F)cc(Cl)c2c(=O)n1-c1cc[nH]n1 [Compound 238, (S)-5-chloro-2-(1-((2,6-diamino-5-chloropyrimidin-4-yl)amino)ethyl)-7-fluoro-3-(1H-pyrazol-3-yl)quinazolin-4(3H)-one] | 21 | > 10000 | 15
9 | N#Cc1c(N)nc(N)nc1N[C@H](c1nc2cc(F)cc(Cl)c2c(=O)n1-c1cc[nH]n1)C1CC1 [Compound 239, (S)-2,4-diamino-6-(((5-chloro-7-fluoro-4-oxo-3-(1H-pyrazol-3-yl)-3,4-dihydroquinazolin-2-yl)(cyclopropyl)methyl)amino)pyrimidine-5-carbonitrile] | 3 | 2700 | 4
10 | Nc1nc(N)c(Cl)c(N[C@H](c2nc3cc(F)cc(Cl)c3c(=O)n2-c2cc[nH]n2)C2CC2)n1 [Compound 240, (S)-5-chloro-2-(cyclopropyl((2,6-diamino-5-chloropyrimidin-4-yl)amino)methyl)-7-fluoro-3-(1H-pyrazol-3-yl)quinazolin-4(3H)-one] | 99 | > 10000 | 42
11 | Cc1c[nH]nc1-n1c([C@@H](Nc2nc(N)nc(N)c2C#N)C2CC2)nc2c(C#N)cccc2c1=O [Compound 241, (S)-2-(cyclopropyl((2,6-diamino-5-cyanopyrimidin-4-yl)amino)methyl)-3-(4-methyl-1H-pyrazol-3-yl)-4-oxo-3,4-dihydroquinazoline-8-carbonitrile] | 93 | > 10000 | 7
12 | Cc1c[nH]nc1-n1c([C@@H](Nc2nc(N)nc(Cl)c2C#N)C2CC2)nc2cccc(Cl)c2c1=O [Compound 243, (S)-2-amino-4-chloro-6-(((5-chloro-3-(4-methyl-1H-pyrazol-3-yl)-4-oxo-3,4-dihydroquinazolin-2-yl)(cyclopropyl)methyl)amino)pyrimidine-5-carbonitrile] | 200 | 3100 | 34
13 | Cc1c[nH]nc1-n1c([C@@H](Nc2nc(N)nc(C)c2C#N)C2CC2)nc2cccc(Cl)c2c1=O [Compound 244, (S)-2-amino-4-(((5-chloro-3-(4-methyl-1H-pyrazol-3-yl)-4-oxo-3,4-dihydroquinazolin-2-yl)(cyclopropyl)methyl)amino)-6-methylpyrimidine-5-carbonitrile] | 31 | 960 | 8
14 | CC[C@H](Nc1nc(N)nc(N)c1C#N)c1nc2cccc(C3CC3)c2c(=O)n1-c1cc[nH]n1 [Compound 245, (S)-2,4-diamino-6-((1-(5-cyclopropyl-4-oxo-3-(1H-pyrazol-3-yl)-3,4-dihydroquinazolin-2-yl)propyl)amino)pyrimidine-5-carbonitrile] | 4 | 370 | 6
15 | Cc1c[nH]nc1-n1c([C@@H](Nc2nc(N)nc(Cl)c2C#N)C2CC2)nc2c(C#N)cccc2c1=O [Compound 246, (S)-2-(((2-amino-6-chloro-5-cyanopyrimidin-4-yl)amino)(cyclopropyl)methyl)-3-(4-methyl-1H-pyrazol-3-yl)-4-oxo-3,4-dihydroquinazoline-8-carbonitrile] | 320 | > 10000 | 36
16 | Cc1c[nH]nc1-n1c([C@@H](Nc2nc(N)nc(N)c2C#N)C2CC2)nc2cccc(Cl)c2c1=O [Compound 247, (S)-2,4-diamino-6-(((5-chloro-3-(4-methyl-1H-pyrazol-3-yl)-4-oxo-3,4-dihydroquinazolin-2-yl)(cyclopropyl)methyl)amino)pyrimidine-5-carbonitrile] | 70 | 730 | 4
17 | Cc1c[nH]nc1-n1c([C@@H](Nc2nc(N)nc(N)c2Cl)C2CC2)nc2cccc(Cl)c2c1=O [Compound 248, (S)-5-chloro-2-(cyclopropyl((2,6-diamino-5-chloropyrimidin-4-yl)amino)methyl)-3-(4-methyl-1H-pyrazol-3-yl)quinazolin-4(3H)-one] | 650 | 8600 | 45
18 | CCC[C@H](Nc1nc(N)nc(N)c1C#N)c1nc2cccc(Cl)c2c(=O)n1-c1cn[nH]c1 [Compound 249, (S)-2,4-diamino-6-((1-(5-chloro-4-oxo-3-(1H-pyrazol-4-yl)-3,4-dihydroquinazolin-2-yl)butyl)amino)pyrimidine-5-carbonitrile] | 3 | 160 | 1
19 | CCC[C@H](Nc1nc(N)nc(N)c1Cl)c1nc2cccc(Cl)c2c(=O)n1-c1cn[nH]c1 [Compound 250, (S)-5-chloro-2-(1-((2,6-diamino-5-chloropyrimidin-4-yl)amino)butyl)-3-(1H-pyrazol-4-yl)quinazolin-4(3H)-one] | 160 | 2020 | 23

Reference: patent publication US10308639B2, “Phosphatidylinositol 3-kinase inhibitors” (Gilead Sciences, Inc., priority 2014, dated 2019)
